“Also recorded” adds a separate entry of the source.
Experiments:
SYO1 cells [1] = test: Cell cycle analysis (Click-iT Plus EdU flow cytometry); format: cell-based, human; conditions: 200 nM or 1 μM, 8 or 13 days, compared to DMSO and lenalidomide
Protocol: (§1) Procedure: SYO1 cells were treated for 8 or 13 days with DMSO, a BRD9 degrader (Compound 1) at 200 nM or 1 μM, or an E3 ligase binder (lenalidomide) at 200 nM. Compounds were refreshed every 5 days. Cell cycle analysis was performed using the Click-iT™ Plus EdU Flow Cytometry Assay (Invitrogen). The apoptosis assay was performed using the Annexin V-FITC Apoptosis Detection Kit (Sigma A9210). Assays were performed according to the manufacturer's protocol.

[2] = system: synovial sarcoma cell lines (SYO1, HS-SY-II, and ASKA); test: Crystal violet growth assay, synovial sarcoma cell lines, day 14; format: cell-based; conditions: for inhibition of growth of synovial sarcoma cell lines: SYO1, HS-SY-II, ASKA, treated daily, indicated concentrations, day 14, FIG. 7
Protocol: (§2) Procedure: Cells were seeded into 6-well or 12-well plates and were treated daily with a BRD9 degrader (Compound 1), a bromo-domain BRD9 binder (Compound 2), E3 ligase binder (lenalidomide), DMSO, or staurosporin (positive control for cell killing), at indicated concentrations. The number of cells was optimized for each cell line. Growth media was refreshed every 5 days. By day 14, medium was removed, cells were washed with PBS, and stained using 500 μL of 0.005% (w/v) crystal violet solution in 25% (v/v) methanol for at least 1 hour at room temperature. Subsequently plates were scanned on an Odyssey CLx Imaging system.

[3] = system: non-synovial control cancer cell lines (293T, A549, G401); test: Growth of non-synovial control cancer cell lines (crystal violet, colony imaging); format: cell-based; conditions: 1 μM or indicated doses, FIGS. 4-6
Protocol: (§3) Cells were treated with DMSO or the BRD9 degrader, Compound 1, at indicated concentrations, and proliferation was monitored from day 7 to day 14 by measuring confluency over time using an IncuCyte live cell analysis system (FIG. 4). Growth medium and compounds were refreshed every 3-4 days.
(§4) Cells were seeded into 12-well plates and treated with DMSO, 1 μM BRD9 inhibitor, Compound 2 (also known as BI-7273, see Martin et al, J Med Chem. 59(10):4462-4475 (2016); see structure of compound 2 below), or 1 μM BRD9 degrader, Compound 1.
(§5) The number of cells was optimized for each cell line. Growth medium and compounds were refreshed every 3-5 days. SYO1, Yamato, A549, 293T and HS-SY-II cells were fixed and stained at day 11. ASKA cells were fixed and stained at day 23. Staining was done by incubation with crystal violet solution (0.5 g Crystal Violet, 27 ml 37% Formaldehyde, 100 mL 10×PBS, 10 mL Methanol, 863 dH20 to 1 L) for 30 min followed by 3× washes with water and drying the plates for at least 24 h at room temperature. Subsequently plates were scanned on an Odyssey CLx Imaging system (FIG. 5).
(§6) Cells were seeded into 96-well ultra-low cluster plate (Costar, #7007) in 200 μL complete media and treated at day 2 with DMSO, Staurosporin, or BRD9 degrader, Compound 1, at indicated doses (FIG. 2C). Media and compounds were changed every 5 d and cell colonies were imaged at day 14.

[4] = system: synovial sarcoma cell lines (SYO1, Yamato, HS-SY-II, and ASKA); test: Growth of synovial sarcoma cell lines (IncuCyte confluency, crystal violet, colony imaging); format: cell-based; conditions: 1 μM or indicated concentrations, FIGS. 4-6
Protocol: as §3, §4, §5, §6

SYO1 cells [5] = test: Apoptosis assay (Annexin V-FITC); format: cell-based, human; conditions: 200 nM or 1 μM, 8 days, compared to DMSO controls
Protocol: as §1

[6] = system: non-synovial control cancer cell lines (RD, HCT116, and Calu6); test: Crystal violet growth assay, non-synovial control cancer cell lines, day 14; format: cell-based; conditions: treated daily, indicated concentrations, FIG. 8
Protocol: as §2

BRD9 = target: T1, BRD9 (Homo sapiens, UniProt Q9H8M2); test: BRD9 western blot in synovial sarcoma tumors in vivo; set-up: species or system mice; conditions: 1 mg/kg, i.p., 4 weeks; tumors collected 8, 72 and 168 hours post last dose; effect up to 168 hours after dose
T1 construct: Tumors were lysed with 1× RIPA lysis buffer; from tissue; host or cells: synovial sarcoma tumours collected from treated mice
T1 sequence (Q9H8M2 1-597): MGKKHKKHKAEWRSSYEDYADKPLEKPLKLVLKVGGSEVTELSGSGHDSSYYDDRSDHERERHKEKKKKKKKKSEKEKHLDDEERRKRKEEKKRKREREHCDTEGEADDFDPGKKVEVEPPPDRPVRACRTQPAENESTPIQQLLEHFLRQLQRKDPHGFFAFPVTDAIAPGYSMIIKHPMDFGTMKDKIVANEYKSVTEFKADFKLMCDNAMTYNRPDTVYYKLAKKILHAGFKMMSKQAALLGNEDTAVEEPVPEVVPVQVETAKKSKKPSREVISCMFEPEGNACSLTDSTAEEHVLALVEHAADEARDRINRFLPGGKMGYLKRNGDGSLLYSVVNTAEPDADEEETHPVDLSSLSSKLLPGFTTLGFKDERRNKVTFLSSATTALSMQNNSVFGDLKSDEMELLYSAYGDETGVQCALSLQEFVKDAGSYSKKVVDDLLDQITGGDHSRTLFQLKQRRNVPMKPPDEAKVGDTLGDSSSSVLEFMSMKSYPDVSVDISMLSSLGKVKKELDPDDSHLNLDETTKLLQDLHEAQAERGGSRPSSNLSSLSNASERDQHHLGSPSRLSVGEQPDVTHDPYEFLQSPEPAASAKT
Protocol: Method: Mice were treated with D1, 1 mg/kg, i.p. for 4 weeks. Mice were then euthanized, and tumors were collected at 8 hours, 72 hours, and 168 hours post last dose. Tumors were lysed with 1× RIPA lysis buffer (Boston BioProducts, BP-115D) with protease and phosphatase protein inhibitor (Roche Applied Science #04906837001 & 05892791001). Equal amounts of lysate (30 μg) were loaded in 4-12% Bis-Tris Midi Protein Gels in 1×MOPS buffer; samples ran at 120 V for 120 minutes. Protein was transferred to membrane with TransBlot at 250 mA for 150 minutes, and then membranes were blocked with Odyssey blocking buffer for 1 hour at room temperature. Membranes were hybridized overnight in cold room with primary antibodies. Images acquired using Li-COR imaging system (Li-COR Biotechnology, Lincoln, Nebraska).

[7] = Tolerability (% body weight change) in the SYO-1 xenograft study; format: in vivo; conditions: 1 mg/kg, i.p., daily, 3 weeks; NOD SCID mice
Protocol: (§7) Method: NOD SCID mice (Beijing Anikeeper Biotech, Beijing) were inoculated subcutaneously on the right flank with the single cell suspension of SYO-1 human biphasic synovial sarcoma tumor cells (5×106) in 100 μL Dulbecco's Modified Eagle Medium (DMEM) with 10% fetal bovine serum (FBS). The mice were randomized into either control group [10% dimethyl sulfoxide (DMSO), 40% polyethylene glycol (PEG400) and 50% water], or treatment group D1 when the mean tumor size reached about 117 mm^3. Mice were dosed daily through intraperitoneal (i.p.) route over the course of 3 weeks. All dose volumes were adjusted by body weights in terms of mg/kg.

[8] = system: SYO-1 human biphasic synovial sarcoma tumor cells; test: SYO-1 synovial sarcoma xenograft tumor growth in NOD SCID mice; format: in vivo; conditions: 1 mg/kg, i.p., daily, 3 weeks, SYO-1 xenograft
Protocol: as §7

| Compound | numbers of cells in the S-phase of the cell cycle (SYO1 cells [1]) | inhibition of growth of synovial sarcoma cell lines [2] | growth inhibition compared with the other test compounds ([2]; all synovial cell lines) | inhibition of growth of non-synovial control cancer cell lines [3] | inhibition of growth of synovial sarcoma cell lines [4] | numbers of early- and late-apoptotic cells (SYO1 cells [5]) | inhibition of growth of non-synovial control cancer cell lines [6] | BRD9 level in tumor (western blot) (BRD9) | tolerability based on % body weight change [7] | tumor growth [8] |
| --- | --- | --- | --- | --- | --- | --- | --- | --- | --- | --- |
| COc1cc(-c2cn(C)c(=O)c3cnccc23)cc(OC)c1CN(C)CC(=O)NCCOCCOCCNc1cccc2c1C(=O)N(C1CCC(=O)NC1=O)C2=O (centres unmarked) [Compound 1] | reduced numbers of cells in the S-phase | inhibition of the growth of the cells | most significant growth inhibition | does not result in inhibition of the growth | inhibition of the growth of the cells | increased numbers of early- and late-apoptotic cells | did not result in inhibition of the growth |  |  |  |
| COc1cc(-c2cn(C)c(=O)c3cnccc23)cc(OC)c1CN(C)C [Compound 2] |  | inhibition of the growth of the cells |  | does not result in inhibition of the growth | inhibition of the growth of the cells |  | did not result in inhibition of the growth |  |  |  |
| COc1cc(-c2cn(C)c(=O)c3cc(C(=O)NC4CCN(C5CCN(c6ccc7c(c6)C(=O)N(C6CCC(=O)NC6=O)C7)CC5)CC4(F)F)sc23)cc(OC)c1CN(C)C (centres unmarked) [Compound D1, 7-[4-[(dimethylamino)methyl]-3,5-dimethoxyphenyl]-N-[1′-[2-(2,6-dioxopiperidin-3-yl)-3-oxo-1H-isoindol-5-yl]-3,3-difluoro-[1,4′-bipiperidin]-4-yl]-5-methyl-4-oxothieno[3,2-c]pyridine-2-carboxamide] |  |  |  |  |  |  |  | complete degradation; also recorded: BRD9 inhibition | well tolerated | tumor growth inhibition |

— patent US12528825B2, “Compounds and uses thereof” (Foghorn Therapeutics Inc., priority 2020, dated 2026)
